From patent publication US5591741A, “Fungicidal spiroheterocyclic derivatives” (American Cyanamid Company, priority 1993, dated 1997)

Tests used:
Phytophthora infestans = assay type: in vivo; conditions: tomato, direct protectant foliar spray
Leptosphaeria nodorum = experiment: Activity against wheat leafspot (LN); assay type: in vivo; conditions: direct therapeutic foliar spray, 600 ppm, 6-8 days
Summary of the method: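 Wheat cv Norman at single-leaf stage spray-inoculated with 1.5×10^6 conidia/ml, held 24 h at high humidity, then sprayed therapeutically with test compound at 600 ppm. Kept 6-8 days at 22° C, 70% humidity; lesion density per leaf rated against untreated or diluent-sprayed controls.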

Botrytis cinerea = experiment: Direct protectant activity against broad bean grey mould (BCB); assay type: in vivo; conditions: direct protectant foliar spray, 600 ppm, 4 days
Summary of the method: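 Broad bean plants (cv The Sutton, two leaf pairs) sprayed on upper leaf surfaces at 600 ppm, then inoculated 24 h later with 10^6 conidia/ml. Kept 4 days at 22 °C, high humidity; disease control rated from % leaf area with lesions against untreated or diluent controls.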

[1] = system: Erysiphe graminis f.sp. hordei; experiment: Direct protectant activity against barley powdery mildew (EGP); assay type: in vivo; conditions: direct protectant foliar spray, 8 days
Summary of the method: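 Barley seedlings (cv Golden Promise, single-leaf stage) were foliar-sprayed, held 24 h at 18 °C/40% RH, then dusted with mildew conidia. After 8 days at 18 °C/40% RH, sporulating leaf area was scored as a rating against untreated or diluent-sprayed controls.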

Venturia inaequalis = experiment: Activity against apple scab in-vitro (VII); assay type: cell-based; conditions: 10 ppm, 10 days, 20° C., mycelial growth
Summary of the method: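 Compound in acetone was tested at 10 ppm final in half-strength Potato Dextrose Broth inoculated with V. inaequalis mycelial fragments and spores at 5×10^4 propagules/ml. After 10 days at 20° C, mycelial growth was rated against untreated or diluent controls.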

Alternaria solani = experiment: Activity against tomato early blight (AS); assay type: in vivo; conditions: Table VI; tomato seedlings, contact prophylactic foliar spray, 4 days
Summary of the method: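 Foliar contact prophylactic spray on tomato seedlings (cv Outdoor Girl, second true leaf expanded) in acetone/water 50:50 with 0.04% Tween 20; 24 h at 20° C, 40% R.H., then inoculation with 10^4 spores/ml A. solani conidia. Kept moist at 21° C; lesion cover rated 4 days post-inoculation against untreated or diluent-sprayed controls.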

Rhizoctonia solani = experiment: Activity against Rhizoctonia in-vitro (RSI); assay type: cell-based; conditions: 10 ppm, 10 days, 20° C., mycelial growth
Summary of the method: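 R. solani mycelial fragments (5×10^4/ml) in half-strength Potato Dextrose Broth with compound added from acetone to 10 ppm final. Mycelial growth assessed after 10 days at 20° C, rated against untreated or diluent control.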

Pyricularia oryzae = assay type: in vivo; conditions: rice seedlings, direct therapeutic foliar spray, 600 ppm, 4-5 days
[2] = system: Erysiphe graminis f.sp. hordei; experiment: Activity against barley powdery mildew, direct therapeutic (EGT); assay type: in vivo; conditions: direct therapeutic foliar spray, 600 ppm, up to 7 days
Summary of the method: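 Barley seedlings (cv. Golden Promise, single-leaf stage) were dusted with mildew conidia one day before a therapeutic foliar spray of 600 ppm compound. Plants were kept at 18 °C and 40% humidity for up to 7 days, and sporulating leaf area was rated against untreated or diluent-sprayed controls.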

Plasmopara viticola = experiment: Antisporulant activity against vine downy mildew (PVA); assay type: in vivo; conditions: vine leaves, antisporulant foliar spray, 600 ppm, 750 l/ha
Summary of the method: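 Cabernet Sauvignon vines (~8 cm) inoculated on lower leaf surfaces with 5×10^4 zoosporangia/ml, held 24 h at 21° C high humidity then 24 h glasshouse. Infected leaves sprayed underside with 600 ppm compound in 1:1 water/acetone, 0.04% Tween 20, 750 l/ha; 96 h glasshouse, 24 h humidity. Sporulating leaf area rated versus control.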

[3] = system: Pseudocercosporella herpotrichoides; experiment: Activity against wheat eyespot in-vitro (PHI); assay type: cell-based; conditions: 10 ppm, 10 days, 20° C., mycelial growth
Summary of the method: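 P. herpotrichoides mycelial fragments (5×10^4/ml) grown in half-strength PDB with compound at 10 ppm final, added from acetone. Incubated 10 days at 20 °C; mycelial growth rated against untreated or diluent controls.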

SMILES	disease control rating PIP (Phytophthora infestans)	disease control rating LN (Leptosphaeria nodorum)	disease control rating BCB (Botrytis cinerea)	disease control rating EGP [1]	disease control rating VII (Venturia inaequalis)	disease control rating AS (Alternaria solani)	disease control rating RSI (Rhizoctonia solani)	disease control rating PO (Pyricularia oryzae)	disease control rating EGT [2]	disease control rating PVA (Plasmopara viticola)	disease control rating PHI [3]
CCCCCCCCCCCCCCCCCCNC1COC2(CCC(C(C)(C)C)CC2)C1 (centres unmarked) [Compound 46]	0 (less than 50% disease control)	0 (less than 50% disease control)	0 (less than 50% disease control)	2 (greater than 80% disease control)	0 (less than 50% disease control)	0 (less than 50% disease control)	0 (less than 50% disease control)	0 (less than 50% disease control)	2 (greater than 80% disease control)	0 (less than 50% disease control)	0 (less than 50% disease control)
CC(C)(C)C1CCC2(CC1)CC(NCc1cccnc1)CO2 (centres unmarked) [Compound 47]	0 (less than 50% disease control)	0 (less than 50% disease control)	0 (less than 50% disease control)	2 (greater than 80% disease control)	1 (about 50-80% disease control)	2 (greater than 80% disease control)	0 (less than 50% disease control)	0 (less than 50% disease control)	2 (greater than 80% disease control)	0 (less than 50% disease control)	0 (less than 50% disease control)
CCCCN(Cc1cccnc1)C1COC2(CCC(C(C)(C)C)CC2)C1 (centres unmarked) [Compound 48]	0 (less than 50% disease control)	0 (less than 50% disease control)	0 (less than 50% disease control)	2 (greater than 80% disease control)	1 (about 50-80% disease control)	2 (greater than 80% disease control)	0 (less than 50% disease control)	0 (less than 50% disease control)	2 (greater than 80% disease control)	0 (less than 50% disease control)	0 (less than 50% disease control)
CCCCCNC1COC2(CCC(C(C)(C)CC)CC2)C1 (centres unmarked) [Compound 49]	2 (greater than 80% disease control)	2 (greater than 80% disease control)	0 (less than 50% disease control)	2 (greater than 80% disease control)	1 (about 50-80% disease control)	0 (less than 50% disease control)	1 (about 50-80% disease control)	0 (less than 50% disease control)	2 (greater than 80% disease control)	0 (less than 50% disease control)	2 (greater than 80% disease control)
CCCCCN(CCCCC)C1COC2(CCC(C(C)(C)CC)CC2)C1 (centres unmarked) [Compound 50]	0 (less than 50% disease control)	0 (less than 50% disease control)	0 (less than 50% disease control)	2 (greater than 80% disease control)	1 (about 50-80% disease control)	0 (less than 50% disease control)	0 (less than 50% disease control)	0 (less than 50% disease control)	2 (greater than 80% disease control)	0 (less than 50% disease control)	0 (less than 50% disease control)
CCC(C)(C)C1CCC2(CC1)CC(NC1CCCCC1)CO2 (centres unmarked) [Compound 51]	2 (greater than 80% disease control)	0 (less than 50% disease control)	0 (less than 50% disease control)	2 (greater than 80% disease control)	1 (about 50-80% disease control)	2 (greater than 80% disease control)	1 (about 50-80% disease control)	0 (less than 50% disease control)	2 (greater than 80% disease control)	0 (less than 50% disease control)	1 (about 50-80% disease control)
CCC(C)(C)C1CCC2(CC1)CC(N1CC(C)CC(C)C1)CO2 (centres unmarked) [Compound 52]	0 (less than 50% disease control)	0 (less than 50% disease control)	0 (less than 50% disease control)	2 (greater than 80% disease control)	1 (about 50-80% disease control)	0 (less than 50% disease control)	1 (about 50-80% disease control)	0 (less than 50% disease control)	2 (greater than 80% disease control)	0 (less than 50% disease control)	1 (about 50-80% disease control)
CCC(C)(C)C1CCC2(CC1)CC(N1CC(C)OC(C)C1)CO2 (centres unmarked) [Compound 53]	0 (less than 50% disease control)	0 (less than 50% disease control)	1 (about 50-80% disease control)	2 (greater than 80% disease control)	1 (about 50-80% disease control)	0 (less than 50% disease control)	0 (less than 50% disease control)	0 (less than 50% disease control)	2 (greater than 80% disease control)	0 (less than 50% disease control)	1 (about 50-80% disease control)
CCCCCNC1COC2(CCC(c3ccccc3)CC2)C1 (centres unmarked) [Compound 54]	0 (less than 50% disease control)	0 (less than 50% disease control)	0 (less than 50% disease control)	2 (greater than 80% disease control)	1 (about 50-80% disease control)	0 (less than 50% disease control)	0 (less than 50% disease control)	0 (less than 50% disease control)	2 (greater than 80% disease control)	0 (less than 50% disease control)	0 (less than 50% disease control)
CCCCN(CCCC)C1COC2(CCC(c3ccccc3)CC2)C1 (centres unmarked) [Compound 55]	0 (less than 50% disease control)	1 (about 50-80% disease control)	2 (greater than 80% disease control)	2 (greater than 80% disease control)	1 (about 50-80% disease control)	0 (less than 50% disease control)	0 (less than 50% disease control)	0 (less than 50% disease control)	2 (greater than 80% disease control)	0 (less than 50% disease control)	0 (less than 50% disease control)
